According to publication PMC8584424, “Synthesis of Novel 2-Thiouracil-5-Sulfonamide Derivatives as Potent Inducers of Cell Cycle Arrest and CDK2A Inhibition Supported by Molecular Docking” (International Journal of Molecular Sciences, 2021):

How the values were obtained:
[1] = tested on: HT-29 (colon) cancer cells; test: In vitro cytotoxicity assessment (MTT), HT-29; format: cell-based, human; settings: for IC50: Homo sapiens, HT-29, 48 h, MTT, mean of three experiments ± SD, NA: not active
Excerpt: (§1) Four cancer cell lines were used in this study viz ovarian (A-2780), colon (HT-29), breast (MCF-7), and liver (HepG2) cancer cells. They were provided by the National Institute of Cancer, Cairo University (Cairo, Egypt). The selection of those cancer cells was encouraged by the stated anticancer activity of a number 5-Fluorouracil hybrids against the mentioned cancer cells and based on the reported cytotoxic activity of a large range of bioactive cores containing sulfonamide moiety.
(§2) Cells were seeded in 96 well plates at a density of 2 × 10^4 and incubated to allow the attachment for 24 h. Then the cells were treated at different concentrations (2.5–10 μM) with 5-FU as a positive control or the synthesized compounds for 48h. 0.1% DMSO was used as a negative control. Afterward, cells were washed using PBS and the viability of cells was evaluated utilizing in vitro toxicology assay kit, MTT Based (Stock No. TOX-1, Sigma-Aldrich, Saint Louis, Missouri, USA), per the manufacturer’s instructions. The plates were read at 570 nm. IC50 was calculated using a sigmoidal dose-response curve (GraphPad Prism version 5 for Windows (GraphPad Inc., USA)). Data are presented as the mean of the three individual experiments. The degree of selectivity of the active target compounds relative to WI38 normal cell lines is expressed as previously described. Selectivity index (SI) = IC50 of a pure compound in a normal cell line/IC50 of the same pure compound in a cancerous cell line.

[2] = tested on: HepG2 (liver) cancer cells; test: In vitro cytotoxicity assessment (MTT), HepG2; format: cell-based, human; settings: for IC50: Homo sapiens, HepG2, 48 h, MTT, mean of three experiments ± SD, NA: not active
Excerpt: as §1, §2

[3] = tested on: A-2780 (ovarian) cancer cells; test: In vitro cytotoxicity assessment (MTT), A-2780; format: cell-based, human; settings: for IC50: Homo sapiens, A2780, 48 h, MTT, mean of three experiments ± SD, NA: not active
Excerpt: as §1, §2

[4] = tested on: MCF-7 (breast) cancer cells; test: In vitro cytotoxicity assessment (MTT), MCF-7; format: cell-based, human; settings: for IC50: Homo sapiens, MCF7, 48 h, MTT, mean of three experiments ± SD, NA: not active
Excerpt: as §1, §2

WI38 normal cells = test: In vitro cytotoxicity assessment (MTT), normal cells; format: cell-based; settings: WI-38; normal human cell line WI38, MTT
Method: as §2, with “Then the cells were treated at different concentrations (2.5–10 μM) with 5-FU as a positive control or the synthesized compounds for 48h.” left out

CDK2/CyclinA2 = molecular target: T1, CDK2/CyclinA2 (Homo sapiens, UniProt P24941); test: In vitro inhibitory screening of CDK2 (CDK2 Assay kit, Kinase-Glo MAX); format: biochemical; settings: CDK2/CyclinA2, 30 °C 45 min; mean of three experiments ± SD; read-out: CDK2 Protein Kinase (IC50 in µM)
T1 construct: purchased #79599
Method: To measure CDK2/CyclinA2 activity, the CDK2 Assay kit #79599 was used for screening and profiling applications, together with Kinase-Glo® MAX (Promega#V6071) as a detection reagent. […] Briefly, 25 μL of the master mixture containing 6 μL Kinase assay buffer + 1 μL ATP + 5 μL CDK substrate peptide + 13 μL distilled water were added to each well. Later, 5 µL of inhibitor buffer only or diluted compound were added to the blank or test inhibitor wells, respectively. Then, 20μL of Kinase assay buffer was added to blank wells. The reaction was started by the addition of 20 μL of CDK2/CyclinA2 enzyme to the wells of the test inhibitor. The final volume was 50 µL in all of the reactions. Incubation was at 30 °C for 45 min for all the enzymatic reactions. Finally, to each well, 50 μL of Kinase-Glo MAX reagent was added. The plate was incubated for 15 min at room temperature then, the luminescence signal was measured using a Bio Tek Synergy 2 microplate reader. Experiments were performed in triplicates.

SMILES	melting point	IC50 (CDK2/CyclinA2)	IC50 [1]	IC50 [2]	IC50 [3]	IC50 [4]	IC50 (WI38 normal cells)	SI (selectivity index) HT-29 ([1]; IC50 in WI38 normal cells / IC50 in HT-29)	SI (selectivity index) HepG2 ([2]; IC50 in WI38 normal cells / IC50 in HepG2)	SI (selectivity index) A-2780 ([3]; IC50 in WI38 normal cells / IC50 in A-2780)	SI (selectivity index) MCF-7 ([4]; IC50 in WI38 normal cells / IC50 in MCF-7)
Cc1[nH]c(=S)[nH]c(=O)c1S(=O)(=O)NNC(N)=S [Compound 8a, [(6-Methyl-4-Oxo-2-Thioxo-1,2,3,4-Tetrahydropyrimidin-5-Yl) Sulfonylamino] Thiourea]	343 to 345 °C	–	8.02 ± 1.99 µM	18 ± 1.95 µM	16.8 ± 1.82 µM	13.3 ± 3 µM	–	–	–	–	–
Cc1[nH]c(=S)[nH]c(=O)c1S(=O)(=O)Nc1ccccc1 [Compound 6a, 6-Methyl-4-Oxo-N-Phenyl-2-Thioxo-1,2,3,4-Tetrahydropyrimidine-5-Sulfonamide]	316 to 318 °C	–	11.3 ± 2.08 µM	15.6 ± 1.52 µM	17.7 ± 2.18 µM	16.8 ± 2.11 µM	–	–	–	–	–
Cc1[nH]c(=S)[nH]c(=O)c1S(=O)(=O)NNc1ccc([N+](=O)[O-])cc1[N+](=O)[O-] [Compound 8c, N′-(2,4-Dinitrophenyl)-6-Methyl-4-Oxo-2-Thioxo-1,2,3,4-Tetrahydropyrimidine-5-Sulfono Hydrazide]	321 to 323 °C	–	10.1 ± 1.54 µM	14.8 ± 1.45 µM	8.57 ± 1.79 µM	5.54 ± 1.58 µM	–	–	–	–	–
Cc1[nH]c(=S)[nH]c(=O)c1S(=O)(=O)Nc1ccc([N+](=O)[O-])cc1 [Compound 6f, 6-Methyl-N-(4-Nitrophenyl)-4-Oxo-2-Thioxo-1,2,3,4-Tetrahydropyrimidine-5-Sulfonamide]	–	0.605 ± 0.023 µM	6.4 ± 1.24 µM	6.1 ± 0.48 µM	10.2 ± 0.97 µM	2.34 ± 0.61 µM	65.7 ± 2.28 µM	–	–	–	–
Cc1ccc(NS(=O)(=O)c2c(C)[nH]c(=S)[nH]c2=O)cc1 [Compound 6c, 6-Methyl-4-Oxo-2-Thioxo-N-(P-Tolyl)-1,2,3,4-Tetrahydropyrimidine-5-Sulfonamide]	313 to 315 °C	–	5.46 ± 1.66 µM	6.71 ± 0.99 µM	14 ± 1.05 µM	6.36 ± 1.2 µM	84.4 ± 1.7 µM	15.46	12.58	6.02	13.27
O=c1[nH]cc(F)c(=O)[nH]1 [Compound 5-FU, 5-fluorouracil, reference compound]	–	–	4.69 ± 1.13 µM	38.4 ± 2.4 µM	3.92 ± 1 µM	5.15 ± 1.14 µM	–	–	–	–	–
Cc1[nH]c(=S)[nH]c(=O)c1S(=O)(=O)NNc1ccccc1 [Compound 8b, 6-Methyl-4-Oxo-N′-Phenyl-2-Thioxo-1,2,3,4-Tetrahydropyrimidine-5-Sulfonohydrazide]	–	–	8.16 ± 2.07 µM	13.1 ± 2.04 µM	16.4 ± 1.55 µM	9.89 ± 1.8 µM	–	–	–	–	–

More lines, main results first:

melting point	IC50 (CDK2/CyclinA2)	SMILES	IC50 [1]	IC50 [2]	IC50 [3]	IC50 [4]	IC50 (WI38 normal cells)	SI (selectivity index) HT-29 ([1]; IC50 in WI38 normal cells / IC50 in HT-29)	SI (selectivity index) HepG2 ([2]; IC50 in WI38 normal cells / IC50 in HepG2)	SI (selectivity index) A-2780 ([3]; IC50 in WI38 normal cells / IC50 in A-2780)	SI (selectivity index) MCF-7 ([4]; IC50 in WI38 normal cells / IC50 in MCF-7)
339 to 341 °C	–	Cc1[nH]c(=S)[nH]c(=O)c1S(=O)(=O)NNC(=O)c1ccc(Br)cc1 [Compound 9c, N′-(4-Bromobenzoyl)-6-Methyl-4-Oxo-2-Thioxo-1,2,3,4-Tetrahydropyrimidine-5-Sulfono-Hydrazide]	6.99 ± 1.35 µM	9.44 ± 1.03 µM	8.16 ± 2.07 µM	11.9 ± 2 µM	–	–	–	–	–
334 to 336 °C	–	Cc1[nH]c(=S)[nH]c(=O)c1S(=O)(=O)NNC(=O)c1ccccc1Cl [Compound 9b, N′-(2-Chlorobenzoyl)-6-Methyl-4-Oxo-2-Thioxo-1,2,3,4-Tetrahydropyrimidine-5-Sulfono-Hydrazide]	10.6 ± 1.25 µM	13.3 ± 1.5 µM	7.95 ± 1.75 µM	13.6 ± 2.65 µM	–	–	–	–	–
327 to 329 °C	–	Cc1[nH]c(=S)[nH]c(=O)c1S(=O)(=O)NNC(=O)c1ccc(Cl)cc1 [Compound 9a, N′-(4-Chlorobenzoyl)-6-Methyl-4-Oxo-2-Thioxo-1,2,3,4-Tetrahydropyrimidine-5-Sulfono-Hydrazide]	6.64 ± 1.19 µM	11 ± 1.23 µM	11.9 ± 3.47 µM	10.8 ± 1.53 µM	–	–	–	–	–
